The source made the active and inactive calls. The rule behind the calls is not given here.
Key:
[1] = biological target: T1, Alpha-1A adrenergic receptor (Homo sapiens) (UniProt P35348); assay: Antagonist activity at human alpha 1A adrenergic receptor expressed in CHO-K1 cells assessed as inhibition of phenylephrine induced […] calcium response at <= 10 uM by whole cell-based assay; format: functional; settings: filed as antagonist
T1 sequence (whole entry): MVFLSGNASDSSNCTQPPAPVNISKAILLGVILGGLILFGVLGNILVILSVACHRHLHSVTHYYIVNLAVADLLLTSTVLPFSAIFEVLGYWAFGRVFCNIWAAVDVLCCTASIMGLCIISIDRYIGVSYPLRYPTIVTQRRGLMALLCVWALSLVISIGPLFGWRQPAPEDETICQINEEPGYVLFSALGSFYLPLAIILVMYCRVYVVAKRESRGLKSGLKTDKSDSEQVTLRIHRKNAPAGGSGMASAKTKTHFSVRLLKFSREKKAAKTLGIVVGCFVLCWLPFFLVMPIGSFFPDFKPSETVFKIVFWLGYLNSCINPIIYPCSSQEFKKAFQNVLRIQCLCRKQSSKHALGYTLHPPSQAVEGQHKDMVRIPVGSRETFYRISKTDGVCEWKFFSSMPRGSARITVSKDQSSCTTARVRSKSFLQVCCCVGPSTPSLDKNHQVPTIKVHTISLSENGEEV

[2] = biological target: Sodium-dependent serotonin transporter (Homo sapiens) (UniProt P31645); assay: Displacement of [3H]-imipramine from human 5-HT transporter expressed in CHO cell membrane assessed as inhibition of radioligand binding at 100 nM incubated for 60 mins by competition binding based scintillation counter analysis relative to control; format: cell membranes
Sodium-dependent serotonin transporter (Homo sapiens), sequence (P31645 whole entry, looked up): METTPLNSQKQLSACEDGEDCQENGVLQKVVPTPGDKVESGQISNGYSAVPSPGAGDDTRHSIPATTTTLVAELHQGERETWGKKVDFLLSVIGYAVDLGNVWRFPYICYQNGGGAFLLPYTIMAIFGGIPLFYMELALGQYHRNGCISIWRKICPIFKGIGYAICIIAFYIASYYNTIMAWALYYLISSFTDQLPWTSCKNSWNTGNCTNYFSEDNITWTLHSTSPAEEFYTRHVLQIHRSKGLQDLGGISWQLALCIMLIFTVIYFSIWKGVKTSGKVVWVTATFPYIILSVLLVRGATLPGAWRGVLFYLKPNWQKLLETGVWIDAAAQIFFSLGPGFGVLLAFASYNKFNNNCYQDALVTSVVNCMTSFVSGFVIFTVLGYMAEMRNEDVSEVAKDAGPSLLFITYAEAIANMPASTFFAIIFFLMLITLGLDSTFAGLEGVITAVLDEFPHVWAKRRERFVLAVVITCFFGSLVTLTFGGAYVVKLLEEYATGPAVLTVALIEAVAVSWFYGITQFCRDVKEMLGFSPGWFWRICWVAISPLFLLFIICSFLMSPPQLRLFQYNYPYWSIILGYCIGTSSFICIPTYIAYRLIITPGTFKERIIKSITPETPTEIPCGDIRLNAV

[3] = biological target: D(2) dopamine receptor (Homo sapiens) (UniProt P14416); assay: Displacement of [3H]7-OH-DPAT from human dopamine D2 receptor expressed in HEK293 cell membrane assessed as inhibition of radioligand binding at 100 nM incubated for 60 mins by competition binding based scintillation counter analysis relative to control; format: cell membranes
D(2) dopamine receptor (Homo sapiens), sequence (P14416 whole entry): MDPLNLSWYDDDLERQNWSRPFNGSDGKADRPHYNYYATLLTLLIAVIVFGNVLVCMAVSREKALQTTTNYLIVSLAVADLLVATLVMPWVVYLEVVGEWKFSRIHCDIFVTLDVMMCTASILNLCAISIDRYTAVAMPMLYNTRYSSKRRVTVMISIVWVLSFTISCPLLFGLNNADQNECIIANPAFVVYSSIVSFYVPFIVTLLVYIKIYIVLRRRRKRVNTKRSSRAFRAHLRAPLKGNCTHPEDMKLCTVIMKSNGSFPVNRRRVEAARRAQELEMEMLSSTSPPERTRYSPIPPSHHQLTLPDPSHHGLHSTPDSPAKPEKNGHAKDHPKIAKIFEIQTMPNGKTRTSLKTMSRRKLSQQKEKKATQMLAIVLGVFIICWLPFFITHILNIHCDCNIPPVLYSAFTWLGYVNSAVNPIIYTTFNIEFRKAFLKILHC

[4] = biological target: D(1A) dopamine receptor (Homo sapiens) (UniProt P21728); assay: Displacement of [3H]SCH-23390 from human dopamine D1 receptor expressed in CHO cell membrane assessed as inhibition of radioligand binding at 100 nM incubated for 60 mins by competition binding based scintillation counter analysis relative to control; format: cell membranes
D(1A) dopamine receptor (Homo sapiens), sequence (P21728 whole entry): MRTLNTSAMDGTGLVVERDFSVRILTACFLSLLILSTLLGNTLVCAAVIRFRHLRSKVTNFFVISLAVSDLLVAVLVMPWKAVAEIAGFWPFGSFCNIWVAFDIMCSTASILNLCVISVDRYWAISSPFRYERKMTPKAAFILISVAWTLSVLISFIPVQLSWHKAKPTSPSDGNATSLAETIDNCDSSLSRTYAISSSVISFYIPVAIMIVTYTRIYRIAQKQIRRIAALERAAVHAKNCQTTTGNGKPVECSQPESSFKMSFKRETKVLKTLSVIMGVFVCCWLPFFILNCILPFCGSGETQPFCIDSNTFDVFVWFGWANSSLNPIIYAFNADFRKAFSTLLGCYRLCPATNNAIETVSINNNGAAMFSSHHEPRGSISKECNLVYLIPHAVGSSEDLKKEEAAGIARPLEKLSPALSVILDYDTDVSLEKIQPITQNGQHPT

[5] = biological target: 5-hydroxytryptamine receptor 2A (Homo sapiens) (UniProt P28223); assay: Displacement of [125I]DOI from human 5-HT2A receptor expressed in HEK293 cell membrane assessed as inhibition of radioligand binding at 100 nM incubated for 60 mins by competition binding based scintillation counter analysis relative to control; format: cell membranes
5-hydroxytryptamine receptor 2A (Homo sapiens), sequence (P28223 whole entry): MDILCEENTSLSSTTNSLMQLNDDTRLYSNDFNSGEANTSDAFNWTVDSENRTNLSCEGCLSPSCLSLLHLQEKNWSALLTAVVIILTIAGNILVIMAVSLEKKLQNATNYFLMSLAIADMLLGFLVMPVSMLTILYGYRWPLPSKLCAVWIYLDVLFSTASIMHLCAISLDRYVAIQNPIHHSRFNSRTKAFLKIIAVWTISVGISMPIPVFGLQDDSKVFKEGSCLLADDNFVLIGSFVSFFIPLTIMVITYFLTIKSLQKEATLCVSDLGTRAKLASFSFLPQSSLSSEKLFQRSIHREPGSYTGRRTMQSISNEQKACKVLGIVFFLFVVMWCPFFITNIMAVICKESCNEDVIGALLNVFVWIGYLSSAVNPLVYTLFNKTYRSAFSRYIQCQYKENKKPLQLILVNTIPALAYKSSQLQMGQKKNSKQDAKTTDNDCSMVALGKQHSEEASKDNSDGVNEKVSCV

[6] = biological target: Sodium-dependent serotonin transporter (Homo sapiens) (UniProt P31645); assay: Displacement of [3H]-imipramine from human 5-HT transporter expressed in CHO cell membrane assessed as inhibition of radioligand binding at 200 nM incubated for 60 mins by competition binding based scintillation counter analysis relative to control; format: cell membranes
Mus musculus [7] = assay: Analgesic activity in thermal stimulated CD-1 mouse assessed as increase in latency to pain response at 5 mg/kg,SC administration measured after 30 mins by tail flick assay; format: functional, organism-based
Mus musculus [8] = assay: Analgesic activity in naloxone induced CD-1 mouse assessed as increase in latency to pain response at 5 mg/kg,po administration measured after 30 mins by tail flick assay; format: functional, organism-based
Mus musculus [9] = assay: Analgesic activity against formalin-induced inflammatory pain C57Bl/6 mouse model assessed as reduction in licking response at 5 mg/kg,SC pretreated for 30 min followed by formalin challenge and measured after 30 mins; format: functional, organism-based; settings: time 60.0 min

SMILES	inhibition [2]	inhibition [4]	also measured
O=C1CN2c3c(cccc3[C@@H]3CN(CCCOc4ccc(F)cc4)CC[C@@H]32)N1			Activity [1]: Active
O=C1CN2c3c(cccc3[C@@H]3CN(CCCO)CC[C@@H]32)N1	inactive	inactive	inhibition [3]: inactive
NC(=O)c1cc(F)ccc1OCCCN1CC[C@H]2[C@@H](C1)c1cccc3c1N2CC(=O)N3		inactive	inhibition [3]: inactive
O=C1CN2c3c(cccc3[C@@H]3CN(CCCOc4ccc5c(c4)OCO5)CC[C@@H]32)N1		inactive	inhibition [5]: inactive
O=C1CN2c3c(cccc3[C@@H]3CN(CCCS(=O)(=O)c4ccc(F)cc4)CC[C@@H]32)N1		inactive	inhibition [6]: inactive; inhibition [3]: inactive
CC1C(=O)Nc2cccc3c2N1[C@H]1CCN(CCCOc2ccc(F)cc2)C[C@@H]31 (stereo partly specified)	inactive		
COc1ccc(OCCCN2CC[C@H]3[C@@H](C2)c2cccc4c2N3CC(=O)N4)cc1		inactive	inhibition [5]: inactive
O=C1CN2c3c(cccc3[C@@H]3CN(CCCOc4ccc(Br)cc4)CC[C@@H]32)N1		inactive	
O=C1CN2c3c(cccc3[C@@H]3CN(CCOc4ccc(F)cc4)CC[C@@H]32)N1	inactive		
CCCCN1CC[C@H]2[C@@H](C1)c1cccc3c1N2CC(=O)N3	inactive	inactive	inhibition [5]: inactive
O=C1CN2c3c(cccc3[C@@H]3CN(CCCOc4ccc(O)cc4)CC[C@@H]32)N1		inactive	
CN1CC[C@]23c4c5ccc(O)c4O[C@H]2[C@@H](O)C=C[C@H]3[C@H]1C5			Activity (Mus musculus [7]): Active; Activity (Mus musculus [8]): inactive; Activity (Mus musculus [9]): Active
Cc1cc(F)cc(C)c1OCCCN1CC[C@H]2[C@@H](C1)c1cccc3c1N2CC(=O)N3		inactive	inhibition [3]: inactive
O=C1CN2c3c(cccc3[C@@H]3CN(CCCCOc4ccc(F)cc4)CC[C@@H]32)N1	inactive		

Source: ChEMBL document CHEMBL5506064, “Discovery of ITI-333, a Novel Orally Bioavailable Molecule Targeting Multiple Receptors for the Treatment of Pain and Other Disorders” (J Med Chem, 2024)
